CC(C)(C)NC[C@H](O)COc1nsnc1N1CCOCC1.O=C(O)/C=C\C(=O)O
Details | solubility (mole fraction)
in 2-methyltetrahydrofuran, 293.2 K | 0.0001
in 2-methyltetrahydrofuran, 303.2 K | 0.00017
in 2-methyltetrahydrofuran, 313.2 K | 0.00038
in 2-methyltetrahydrofuran, 323.2 K | 0.00067
in 2-methyltetrahydrofuran, 333.2 K | 0.0013
in acetone, 281.1 K | 0.00048
in acetone, 288.3 K | 0.00056
in acetone, 292.8 K | 0.00065
in acetone, 301.9 K | 0.00089
in acetone, 313.3 K | 0.00121
in acetone, 323.1 K | 0.00166
in cyrene, 284 K | 0.00047
in cyrene, 286.1 K | 0.00054
in cyrene, 289.8 K | 0.00075
in cyrene, 292.4 K | 0.001
in cyrene, 301.1 K | 0.00146
in cyrene, 312.2 K | 0.0023
in cyrene, 323.7 K | 0.00379
in cyrene, 332 K | 0.0055
in dimethyl isosorbide, 282.6 K | 0.00022
in dimethyl isosorbide, 289.1 K | 0.00034
in dimethyl isosorbide, 297.5 K | 0.00052
in dimethyl isosorbide, 309.7 K | 0.00072
in dimethyl isosorbide, 325.9 K | 0.00117
in dimethyl isosorbide, 330.9 K | 0.00151
in ethanol, 280.1 K | 0.00105
in ethanol, 285 K | 0.0012
in ethanol, 290.8 K | 0.00145
in ethanol, 302.3 K | 0.00217
in ethanol, 312.8 K | 0.00319
in ethanol, 322.7 K | 0.00471
in ethanol, 329.8 K | 0.00648
in isopropanol, 279.5 K | 0.00013
in isopropanol, 282.9 K | 0.00014
in isopropanol, 290.9 K | 0.00018
in isopropanol, 293.6 K | 0.00025
in isopropanol, 298.8 K | 0.00037
in isopropanol, 313.7 K | 0.0006
in isopropanol, 321.7 K | 0.00097
in isopropanol, 330.1 K | 0.00143
in n-butanol, 278.3 K | 0.00028
in n-butanol, 281.7 K | 0.00034
in n-butanol, 284.8 K | 0.00038
in n-butanol, 289.6 K | 0.00049
in n-butanol, 303.2 K | 0.00075
in n-butanol, 305.1 K | 0.00087
in n-butanol, 309.1 K | 0.00102
in n-butanol, 316.3 K | 0.00144
in n-butanol, 321.4 K | 0.00178
in n-butanol, 328.7 K | 0.00251
in water, 286 K | 0.00245
in water, 293.1 K | 0.00277
in water, 300.5 K | 0.00319
in water, 305 K | 0.00352
in water, 313.9 K | 0.00449
in water, 320.8 K | 0.00572
in water, 325.8 K | 0.00694
in water, 327.2 K | 0.0074
